Results: paper PMC8147216, “Genotoxicity Evaluation of Propyl-Propane-Thiosulfinate (PTS) from Allium genus Essential Oils by a Combination of Micronucleus and Comet Assays in Rats” (Foods, 2021)
Several values for one entry are separate records, joined by “and”; a condition that tells them apart may be missing. Equal values may be shown once. Read-outs that look alike come from different tables or passages of the source.

How the values were obtained:
bone marrow erythrocytes = assay: In vivo micronucleus (MN) assay in bone marrow (OECD 474); parameters: species or system Wistar rats
Protocol: (§1) After acclimation time, 28 male and 28 female rats were randomly divided into control or treatment groups: the negative control (C−) (five male and five female rats), the solvent control (C sol) (five male and five female rats) treated with water with 0.3% Tween 80, and the positive control (C+) (three male and three female rats) treated with 200 mg/kg b.w. of ethylmethanesulfonate (EMS). The three PTS-treated groups (five male and five female rats per group) were exposed to 55.0, 17.4, and 5.5 mg of PTS/kg b.w. The number of animals was selected according to OECD 474 [27] and OECD 489 [28], which state five animals per sex and per group, and which also allow the use of at least three animals of both sexes treated with a positive control.
Doses were dissolved in water with Tween 80 (final concentration 0.3%) in a final volume of 1.5 mL. Tween 80 was previously used in genotoxicity in vivo studies by Mellado-Garcia et al. with the aim of better conveying alliaceous compounds with an oily nature. All groups were dosed at 0, 24, and 45 h via gavage using a stomach tube (Vygon, Ecouen, France) and were sacrificed 3 h after the final dose administration for the combined comet assay and MN endpoints. The time points of PTS administrations, as well as the timing of sacrifice, were selected following the criteria of OECD guideline 489 and Bowen et al..
(§2) Samples of the liver and stomach were extracted, and a small part of each tissue was immediately handled, as described in Section 2.6, for the standard and enzyme-modified comet assay. Moreover, blood samples were extracted and preserved in Vacutainer® sodium Heparin Tubes (Becton, Dickinson, Rutherford, NJ, USA). Furthermore, samples from the bone marrow of both femurs of each animal were gathered for the MN assay and were rapidly used to prepare smears (Figure 1). For the histopathologic study, sections of the liver and stomach were excised, rinsed with cold saline solution, and preserved in 10% buffered formalin for light microscopy, according to Llana-Ruiz-Cabello et al..
The MN test was performed according to the OECD guideline 474 [27] and Diez-Quijada et al.. The bone marrow of the femurs of the rats were mixed with a drop of fetal bovine serum. Therefore, slides were immersed in methanol, dried, and stained with Giemsa (Figure 1).
The polychromatic erythrocytes (PCE) among total erythrocytes (polychromatic and normochromic erythrocytes (NCE)) ratio and PCE for every NCE ratio were calculated by counting 500 erythrocytes per rat. The number of micronuclei found in immature erythrocytes was calculated by counting a total of 5000 […] per rat, and it was expressed as %MN.

[1] = tested on: liver, stomach and blood cells; assay: In vivo standard comet assay (OECD 489); parameters: species or system Wistar rats; details: any doses assayed, either sex
Protocol: as §1
(§3) Doses were dissolved in water with Tween 80 (final concentration 0.3%) in a final volume of 1.5 mL. Tween 80 was previously used in genotoxicity in vivo studies by Mellado-Garcia et al. with the aim of better conveying alliaceous compounds with an oily nature. […]
(§4) At least 150 randomly selected nuclei per rat were analyzed with the image-analysis-software Comet Assay IV (Perceptive Instruments, UK). The %DNA in the tail, automatically acquired by the software, were used to define each of the comets analyzed. […] The medians of the scored comets were taken to describe each animal, and the means of each group of doses and controls are represented in Figure 2.

[2] = tested on: liver, stomach and blood cells; assay: In vivo enzyme-modified comet assay (Endo III, FPG); parameters: species or system Wistar rats; details: any tissue assayed (liver, stomach, blood); 5.5, 17.4, 55.0 mg/kg
Protocol: as §1, §3, §4

liver and stomach [3] = assay: Histopathological analysis of liver and stomach; type: in vivo, rats
Description: as §2
Liver and stomach samples were processed and observed under the microscope according to Diez-Quijada et al.. A semiquantitative evaluation of the severity of lesions was scored as follows: 0, no significant lesions (0%); 1, minimal (<10%); 2, mild (11–25%); 3, moderate (26–50%); 4, severe (51–75%); and 5: very severe (>75%). Samples were individually examined by two unbiased and experienced observers, a veterinary pathologist, and an investigator (V.M-H. and R.M.).

rats [4] = assay: Acute toxicity study to establish the maximum tolerated dose; type: in vivo
Protocol: The selection of PTS doses was calculated while taking into account a preceding acute toxicity study carried out by our research group, in which rats (8–10 weeks old) were administrated decreasing doses of PTS to establish the maximum tolerated dose (MTD). […] At that dose, no remarkable injury was detected in the treated rats, and no evidence of study-limiting toxicity was observed. Then, considering the ICH S2 Guidelines and the OECD protocols 474 [27] and 489 [28], the limit dose or MTD of 55.0 mg/kg b.w. was chosen as the highest dose, and two additional properly spaced dose levels (divided by √10) were also calculated. Consequently, the doses were set at 55.0, 17.4, or 5.5 mg of PTS/kg b.w.

rats [5] = assay: Observation of clinical signs after treatment; type: in vivo, Wistar rats; details: all levels of doses of PTS (5.5, 17.4, 55.0 mg/kg b.w.), oral gavage
Description: After treatment, each rat was observed twice daily for clinical signs such as changes in the eye, fur, or skin, changes in gait and posture, and secretions.

male and female rats [6] = assay: Combined in vivo MN-comet assay (overall genotoxicity); details: male and female rats orally exposed, 55.0, 17.4 or 5.5 mg PTS/kg b.w.
Protocol: After acclimation time, 28 male and 28 female rats were randomly divided into control or treatment groups: the negative control (C−) (five male and five female rats), the solvent control (C sol) (five male and five female rats) treated with water with 0.3% Tween 80, and the positive control (C+) (three male and three female rats) treated with 200 mg/kg b.w. of ethylmethanesulfonate (EMS). The three PTS-treated groups (five male and five female rats per group) were exposed to 55.0, 17.4, and 5.5 mg of PTS/kg b.w. The number of animals was selected according to OECD 474 [27] and OECD 489 [28], which state five animals per sex and per group, and which also allow the use of at least three animals of both sexes treated with a positive control. Doses were dissolved in water with Tween 80 (final concentration 0.3%) in a final volume of 1.5 mL. Tween 80 was previously used in genotoxicity in vivo studies by Mellado-Garcia et al. with the aim of better conveying alliaceous compounds with an oily nature. All groups were dosed at 0, 24, and 45 h via gavage using a stomach tube (Vygon, Ecouen, France) and were sacrificed 3 h after the final dose administration for the combined comet assay and MN endpoints. The time points of PTS administrations, as well as the timing of sacrifice, were selected following the criteria of OECD guideline 489 and Bowen et al..

[7] = parameters: method as in PMID 27939830; details: 8.75–280 µM, presence or absence of S9; cited from earlier work
L5178YTk+/− cells [8] = tested on: L5178YTk+/− cells; parameters: method as in PMID 27939830; details: 0.9–15.65 µM, 24 and 48 h of treatment; cited from earlier work
L5178YTk+/− cells [9] = tested on: L5178YTk+/− cells; parameters: method as in PMID 27939830; details: cited from earlier work
Caco-2 cells [10] = tested on: Caco-2 cells; parameters: method as in PMID 27939830; details: 24 and 48 h, highest concentration assayed; cited from earlier work
Caco-2 cells [11] = tested on: Caco-2 cells; parameters: method as in PMID 27939830; details: 24–48 h; cited from earlier work
liver and stomach [12] = tested on: liver and stomach; parameters: method as in PMID 27085469; details: in vivo genotoxicity study; except glycogen accumulation in liver and slight degeneration in stomach at 55.0 mg/kg; cited from earlier work
male and female rats [13] = tested on: male and female rats; parameters: method as in PMID 27085469; details: cited from earlier work
[14] = parameters: method as in PMID 26607106; details: four in vitro genotoxicity assays; cited from earlier work
[15] = female, Wistar, rat, in vivo, 200 mg/kg, 48 h
[16] = male, Wistar, rat, in vivo, 200 mg/kg, 48 h
[17] = females, 5.5 mg/kg, gavage at 0, 24, 45 h, mean ± SD
[18] = females, 17.4 mg/kg, gavage at 0, 24, 45 h, mean ± SD
[19] = females, 55.0 mg/kg, gavage at 0, 24, 45 h, mean ± SD
[20] = males, 5.5 mg/kg, gavage at 0, 24, 45 h, mean ± SD
[21] = males, 17.4 mg/kg, gavage at 0, 24, 45 h, mean ± SD
[22] = males, 55.0 mg/kg, gavage at 0, 24, 45 h, mean ± SD

For CCOS(C)(=O)=O [EMS, ethylmethanesulfonate, reference compound], the “%MN” value (bone marrow erythrocytes; [15]) was 2.53 ± 0.38 %, the PCE/NCE (bone marrow erythrocytes; [15]) was 0.53 ± 0.29 and the PCE/Total (bone marrow erythrocytes; [15]) was 0.33 ± 0.12. For the same compound, the “%MN” value (bone marrow erythrocytes; [16]) was 1.46 ± 0.72 %, the PCE/NCE (bone marrow erythrocytes; [16]) was 0.54 ± 0.12 and the PCE/Total (bone marrow erythrocytes; [16]) was 0.35 ± 0.05.
For CCCS[S+]([O-])CCC (stereo not drawn) [PTS, Propyl-propanethiosulfinate], the “% of MN in immature erythrocytes vs controls” value (bone marrow erythrocytes; any groups (5.5, 17.4, 55 mg/kg) of either sex) was “not significantly changed”, the “%MN” value (bone marrow erythrocytes; [17]) was 0.86 ± 0.09% and the PCE/NCE (bone marrow erythrocytes; [17]) was 1.03 ± 0.43. The PCE/Total (bone marrow erythrocytes; [17]) was 0.49 ± 0.10, the “%MN” value (bone marrow erythrocytes; [18]) was 0.74 ± 0.06% and the PCE/NCE (bone marrow erythrocytes; [18]) was 0.68 ± 0.36. For the same compound, the PCE/Total (bone marrow erythrocytes; [18]) was 0.38 ± 0.13, the “%MN” value (bone marrow erythrocytes; [19]) was 1.03 ± 0.21% and the PCE/NCE (bone marrow erythrocytes; [19]) was 0.54 ± 0.28. The PCE/Total (bone marrow erythrocytes; [19]) was 0.33 ± 0.11, the “%MN” value (bone marrow erythrocytes; [20]) was 0.46 ± 0.21% and the PCE/NCE (bone marrow erythrocytes; [20]) was 1.31 ± 0.30. The PCE/Total (bone marrow erythrocytes; [20]) was 0.56 ± 0.05, the “%MN” value (bone marrow erythrocytes; [21]) was 0.72 ± 0.30% and the PCE/NCE (bone marrow erythrocytes; [21]) was 1.14 ± 0.34. For the same compound, the PCE/Total (bone marrow erythrocytes; [21]) was 0.52 ± 0.08, the “%MN” value (bone marrow erythrocytes; [22]) was 0.46 ± 0.15% and the PCE/NCE (bone marrow erythrocytes; [22]) was 0.89 ± 0.21. The PCE/Total (bone marrow erythrocytes; [22]) was 0.46 ± 0.06, the “DNA strand breaks (%DNA in tail), standard comet assay” value [1] was “No observed DNA stand breaks” and the “frequency of Endo III or FPG-sensitive sites” value [2] was “no remarkable changes”. For the same compound, the “severity of lesions in glandular stomach” value (liver and stomach [3]; 55.0 mg/kg, hypertrophy of mucus cells and flaking epithelium, p < 0.05 vs controls) was “minimal to mild”, the “severity of lesions in liver” value (liver and stomach [3]; 55.0 mg/kg, inflammatory infiltrates and centrilobular degeneration of hepatocytes, p < 0.05 vs controls) was “minimal (1, minimal (<10%))” and the “severity of changes in liver” value (liver and stomach [3]; 17.4 and 5.5 mg/kg, similar to negative and solvent controls) was “minimal (1, minimal (<10%))”. For the same compound, the “severity of histopathological changes in stomach” value (liver and stomach [3]; 17.4 and 5.5 mg/kg, statistically significant) was “minimal (1, minimal (<10%))”, the “lesions in the nonglandular stomach” value (liver and stomach [3]; positive control (EMS 200 mg/kg) and PTS 55.0 mg/kg groups, with pyogranulomatous inflammatory infiltrate) was “vacuolation of the squamous epithelium in the mucosa” and the mortality (rats [4]; initial dose 175.0 mg of PTS/kg b.w.) was “death of one of the three animals”. For the same compound, the “maximum tolerated dose (MTD)” value (rats [4]; rat, in vivo) was 55.0 mg of PTS/kg, the clinical signs (rats [5]) was “No clinical signs were observed” and the in vivo genotoxicity (male and female rats [6]) was “not genotoxic”. For the same compound, the “mutagenicity in the Ames test” value [7] was “not mutagenic”, the “mutagenicity in MLA assay” value (L5178YTk+/− cells [8]) was “not mutagenic” and the “concentration with positive results in MN test in vitro” value (L5178YTk+/− cells [9]; metabolites (+S9)) was at least 20 µM. For the same compound, the “concentration with positive results in MN test in vitro” value (L5178YTk+/− cells [9]; without S9, highest concentration assayed) was 17.25 µM, the “concentration with positive results in standard comet assay” value (Caco-2 cells [10]) was 280 µM and 280.0 µM and the “DNA damage after incubation with enzymes (Endo III or FPG)” value (Caco-2 cells [11]) was “no increase in DNA damage”.
In the case of CCCSS(=O)(=O)CCC [PTSO, propyl thiosulfinate oxide], the “histopathological damage in liver and stomach” value (liver and stomach [12]) is listed as “no relevant damage”, the in vivo genotoxicity (male and female rats [13]) is listed as “lack of PTSO genotoxicity” and the “in vitro genotoxicity responses” value [14] is listed as “contradictory responses”.
